# Where “and” joins values, the source holds several entries; their conditions need not be identical. Equal entries are not always repeated. Where two headings read alike, the source gives them in different places.
# Key:
# broilers = conditions: diet supplemented with pangamic acid; cited from earlier work
# [1] = system: male grower-finisher pigs exposed to mycoplasmal infections; conditions: cited from earlier work
# growing broilers = conditions: DMG supplementation; cited from earlier work
# [2] = system: weaned piglets (pigs of Rattlerow Seghers origin); assay type: in vivo; set-up: dG / End BW: unit not given here
# From the text: The setup of the experiments described below is to assess the influence of DMG on the performance in model species for pigs: mortality, feed conversion ratio (FCR), daily growth (dG), body weight (BW).
# To examine all the effects associated with the supplementation of dimethylglycine (DMG) in pig feed, a test was setup with pigs of Rattlerow Seghers origin as model species. In this feeding trial 60 weaned piglets of even sex distribution were kept for 42 days. Teeth of piglets were clipped and male piglets were neutered during the first week after birth. At the beginning of the test the piglets were ad random divided per sex in 20 pens with 3 piglets per pen, reckoning even weight distribution at pen level. The piglets were fed with one type of feed from the first day on till the end of the test period. The type of feed was attributed on a random basis to the different housings. The control feed was based on a commercial piglet feed enriched with 5% corn oil to increase the oxidative stress in the feed. The feed had the following composition: 91% dry matter, 5% ash, 18% crude protein, 8% crude fat, 4% crude fibre and 56% other carbohydrate. It has a (calculated) metabolizable energy value of about 13.9 MJ/kg.
# In the second type of feed 500mg of DMG was added per kilogram to the same composition of feed as described for the control feed. Over the entire test period, the pigs consumed on average about 290 mg DMG per piglet per day. The housing of the piglets consisted out of slatted floor pig pens of 1.05 m×1.7 m with a total surface of 1.785 m^2. Feed and water were ad libitum available at all times.
# Each piglet was weighted after overnight fasts at 4 times, namely at days 0, 14, 29 and 42. The daily growth for the total growth period (dG) as well as daily growth during the three periods (between the start and the fourteenth day (dGI), between the fourteenth and the twenty-ninth day (dGII) and between the twenty-ninth day and the forty-second day (dGIII)) was calculated for each animal. The feed intake for each pen was also measured during these periods. The feed conversion ratio was calculated for each of the pens for both the growth period excluding the first two weeks (FRCII+III) and for the total growth period (FRC). This feed conversion ratio was calculated by dividing the total feed consumption by the weight gain of the piglets during the entire experiment.
structure (smiles),measurement,setting,value
"CN(C)CC(=O)OC[C@@H](O)[C@@H](O)[C@H](O)[C@@H](O)C(=O)O [pangamic acid, 6-O-(dimethylaminoacetyl)-D-gluconic acid]",body weight gain,broilers,reduction
same,feed conversion rate,broilers,not affected
C[N+](C)(C)CC(=O)O [betaine],lung area damaged by mycoplasmal infection,[1]; 0.125% betaine in feed,significant reduction
same,"growth rate and other performance characteristics, such as the feed conversion ratio",[1]; growing pigs exposed to mycoplasmal infections,improvements
"CN(C)CC(=O)O [DMG, N,N-dimethylglycine]",body weight gain,growing broilers,not an important impact
same,feed conversion rate,growing broilers,decreased
same,End BW,"[2]; Barrow, DMG 500 ppm, mean ± SD",23.4 ± 0.86
same,dG,"[2]; Barrow, DMG 500 ppm, mean ± SD",356 ± 20
same,FCRII + III,"[2]; Barrow, excluding the first two weeks, DMG 500 ppm, mean ± SD",1.71 ± 0.12
same,"FCRII + III, DMG-effect","[2]; Barrow, excluding the first two weeks, vs control",−6.2%
same,FCR,"[2]; Barrow, total growth period, DMG 500 ppm, mean ± SD",1.80 ± 0.09
same,"FCR, DMG-effect","[2]; Barrow, total growth period, vs control",−8.4%
same,End BW,"[2]; Gilt, DMG 500 ppm, mean ± SD",19.3 ± 1.64
same,dG,"[2]; Gilt, DMG 500 ppm, mean ± SD",271 ± 39
same,FCRII + III,"[2]; Gilt, excluding the first two weeks, DMG 500 ppm, mean ± SD",1.74 ± 0.09
same,"FCRII + III, DMG-effect","[2]; Gilt, excluding the first two weeks, vs control",−8.9%
same,FCR,"[2]; Gilt, total growth period, DMG 500 ppm, mean ± SD",1.93 ± 0.16
same,"FCR, DMG-effect","[2]; Gilt, total growth period, vs control",−3.6%
same,"End BW, DMG-effect","[2]; Gilt, vs control",−7.0%
same,"dG, DMG-effect","[2]; Gilt, vs control",−11.0%
same,dGI,"[2]; barrows and gilts, daily growth day 0-14, DMG 500 mg/kg feed, mean ± SD",94 ± 58 g/day
same,dGII,"[2]; barrows and gilts, daily growth day 14-29, DMG 500 mg/kg feed, mean ± SD",365 ± 65 g/day
same,dGIII,"[2]; barrows and gilts, daily growth day 29-42, DMG 500 mg/kg feed, mean ± SD",491 ± 118 g/day
same,"dGI, DMG-effect","[2]; barrows and gilts, day 0-14, vs control",−7.0%
same,"dGII, DMG-effect","[2]; barrows and gilts, day 14-29, vs control",+8.1%
same,"dGIII, DMG-effect","[2]; barrows and gilts, day 29-42, vs control",+2.1%
same,End body weight,"[2]; barrows and gilts, day 42, DMG 500 mg/kg feed, mean ± SD",21.4 ± 2.46 kg
same,"FCRII + III, DMG-effect","[2]; barrows and gilts, excluding the first two weeks, vs control",−7.6%
same,FCRII + III,"[2]; barrows and gilts, growth period excluding the first two weeks, DMG 500 mg/kg feed, mean ± SD",1.72 ± 0.10
same,improvement in feed conversion ratio (lower FCR),"[2]; barrows and gilts, growth period excluding the first two weeks, vs control, given unsigned",7.6%
same,FCR (feed conversion ratio),"[2]; barrows and gilts, total growth period, DMG 500 mg/kg feed, mean ± SD",1.87 and 1.87 ± 0.14
same,"FCR, DMG-effect","[2]; barrows and gilts, total growth period, vs control",−5.9%
same,improvement in feed conversion ratio (lower FCR),"[2]; barrows and gilts, total growth period, vs control, given unsigned",5.9%
same,Daily growth (dG),"[2]; barrows and gilts, total period day 0-42, DMG 500 mg/kg feed, mean ± SD",314 ± 53 g/day
same,improvement in feed conversion ratio (lower FCR),"[2]; barrows, total growth period, vs control, given unsigned",8.4%
same,"improvement in feed conversion ratio (FCRII+III, lower)","[2]; gilts, growth period excluding the first two weeks, vs control, given unsigned",8.9%
same,improvement in feed efficiency (lower FCR),"[2]; gilts, total growth period, vs control, only numerically, given unsigned",3.6%
same,health of the animals during the experiment (clinical signs of disease),"[2]; pig, in vivo",remained healthy

# — patent publication US20100183580A1, “TREATMENT OF PIGS FOR REDUCING THE FEED CONVERSION RATIO OR INCREASING THE GROWTH RATE” (priority 2007, published 2010)
